# From patent US11291643B2, “Methods of treating hypertriglyceridemia” (Amarin Pharmaceuticals Ireland Limited, priority 2011, dated 2022)
# Tested on: patients with fasting triglyceride levels ≥500 mg/dL
# Assay: Lipoprotein particle concentration by NMR spectroscopy in the clinical study
# Type: in vivo, human
# Details: for IDL particle concentration, median change from baseline / Large HDL particle concentration, median change from baseline / Large LDL particle concentration, median change from baseline / Large VLDL particle concentration, median change from baseline / Medium HDL particle concentration, median change from baseline / Medium VLDL particle concentration, median change from baseline / Small HDL particle concentration, median change from baseline / Small LDL particle concentration, median change from baseline / Small VLDL particle concentration, median change from baseline / Total HDL particle concentration, median change from baseline / Total LDL particle concentration, median change from baseline / Total VLDL particle concentration, median change from baseline: baseline to study end
# Experimental: Lipoprotein particle concentrations and sizes were measured with nuclear magnetic resonance spectroscopy in the above described clinical trial. Lipoprotein particle size and concentration parameters were obtained from fasting blood samples. Lipoprotein particle size and concentrations are measured by nuclear magnetic resonance (NMR) spectroscopy at LipoScience, Inc. (Raleigh, N.C.) using the LipoProfile-3 algorithm. VLDL, LDL, and HDL subclasses of different size were quantified from the amplitudes of their spectroscopically-distinct lipid methyl group NMR signals.
# Concentrations of the following subclasses of lipoproteins were analyzed in this study: small LDL (18.0-20.5 nm), large LDL (20.5-23.0 nm), intermediate-density lipoprotein (IDL; 23.0-29.0 nm), large high-density lipoprotein (HDL; 9.4-14.0 nm), medium HDL (8.2-9.4 nm), small HDL (7.3-8.2 nm), large very-low-density lipoprotein (VLDL; >60 nm), medium VLDL (42-60 nm), and small VLDL (29-42 nm).
# Subjects with missing baseline or Week 12 measurements, due to either missing laboratory samples or un-reportable values, were excluded from this analysis. The median difference of each lipoprotein particle variable (percent change from baseline) between each AMR101 treatment group and the placebo group was evaluated with a nonparametric test using the Hodges-Lehmann medians of the differences between treatment groups and the Wilcoxon rank-sum test (significance level 0.05). All statistical analyses were carried out using SAS 9.2 software.
# [1] = 2 g/day vs placebo, Hodges-Lehmann median
# [2] = 4 g/day vs placebo, Hodges-Lehmann median
# [3] = 4 g/day vs placebo, stated as reduction
smiles,measurement,setting,value
"CC/C=C\C/C=C\C/C=C\C/C=C\C/C=C\CCCC(=O)OCC [AMR101, ethyl eicosapentaenoate]","Small LDL particle concentration, placebo-adjusted median percent change from baseline",[1],−12.8%
same,"Total HDL particle concentration, placebo-adjusted median percent change from baseline",[1],−3.0%
same,"Total LDL particle concentration, placebo-adjusted median percent change from baseline",[1],−1.1%
same,Reduction of small LDL particle concentration,"2 g/day vs placebo, stated as reduction",12.8%
same,"IDL particle concentration, median change from baseline","2 g/day, n = 63",0.8%
same,"Large HDL particle concentration, median change from baseline","2 g/day, n = 63",−1.6%
same,"Large LDL particle concentration, median change from baseline","2 g/day, n = 63",−20.9%
same,"Large VLDL particle concentration, median change from baseline","2 g/day, n = 63",−2.5%
same,"Medium HDL particle concentration, median change from baseline","2 g/day, n = 63",3.9%
same,"Medium VLDL particle concentration, median change from baseline","2 g/day, n = 63",18.8%
same,"Small HDL particle concentration, median change from baseline","2 g/day, n = 63",−3.2%
same,"Small LDL particle concentration, median change from baseline","2 g/day, n = 63",9.5%
same,"Small VLDL particle concentration, median change from baseline","2 g/day, n = 63",11.5%
same,"Total HDL particle concentration, median change from baseline","2 g/day, n = 63",−3.3%
same,"Total LDL particle concentration, median change from baseline","2 g/day, n = 63",12.6%
same,"Total VLDL particle concentration, median change from baseline","2 g/day, n = 63",13.1%
same,"IDL particle concentration, end-of-treatment value (median)","2 g/day, n = 63, study end",144.0 nmol/L
same,"Large HDL particle concentration, end-of-treatment value (median)","2 g/day, n = 63, study end",2.3 µmol/L
same,"Large LDL particle concentration, end-of-treatment value (median)","2 g/day, n = 63, study end",51.0 nmol/L
same,"Large VLDL particle concentration, end-of-treatment value (median)","2 g/day, n = 63, study end",29.9 nmol/L
same,"Medium HDL particle concentration, end-of-treatment value (median)","2 g/day, n = 63, study end",8.7 µmol/L
same,"Medium VLDL particle concentration, end-of-treatment value (median)","2 g/day, n = 63, study end",93.8 nmol/L
same,"Small HDL particle concentration, end-of-treatment value (median)","2 g/day, n = 63, study end",21.5 µmol/L
same,"Small LDL particle concentration, end-of-treatment value (median)","2 g/day, n = 63, study end",1100 nmol/L
same,"Small VLDL particle concentration, end-of-treatment value (median)","2 g/day, n = 63, study end",53.9 nmol/L
same,"Total HDL particle concentration, end-of-treatment value (median)","2 g/day, n = 63, study end",33.4 µmol/L
same,"Total LDL particle concentration, end-of-treatment value (median)","2 g/day, n = 63, study end",1464 nmol/L
same,"Total VLDL particle concentration, end-of-treatment value (median)","2 g/day, n = 63, study end",190.1 nmol/L
same,"Large VLDL particle concentration, placebo-adjusted median percent change from baseline",[2],−27.9%
same,"Small LDL particle concentration, placebo-adjusted median percent change from baseline",[2],−25.6%
same,"Small VLDL particle concentration, placebo-adjusted median percent change from baseline",[2],5.3%
same,"Total HDL particle concentration, placebo-adjusted median percent change from baseline",[2],−7.4%
same,"Total LDL particle concentration, placebo-adjusted median percent change from baseline",[2],−16.3%
same,Reduction of small LDL particle concentration,[3],25.6%
same,"Reduction of total LDL particle concentration (IDL, small LDL and large LDL particles)",[3],16.3%
same,"IDL particle concentration, median change from baseline","4 g/day, n = 61",19.2%
same,"Large HDL particle concentration, median change from baseline","4 g/day, n = 61",8.3%
same,"Large LDL particle concentration, median change from baseline","4 g/day, n = 61",−32.3%
same,"Large VLDL particle concentration, median change from baseline","4 g/day, n = 61",−24.5%
same,"Medium HDL particle concentration, median change from baseline","4 g/day, n = 61",−18.3%
same,"Medium VLDL particle concentration, median change from baseline","4 g/day, n = 61",36.4%
same,"Small HDL particle concentration, median change from baseline","4 g/day, n = 61",−5.1%
same,"Small LDL particle concentration, median change from baseline","4 g/day, n = 61",−9.7%
same,"Small VLDL particle concentration, median change from baseline","4 g/day, n = 61",4.3%
same,"Total HDL particle concentration, median change from baseline","4 g/day, n = 61",−7.1%
same,"Total LDL particle concentration, median change from baseline","4 g/day, n = 61",−0.1%
same,"Total VLDL particle concentration, median change from baseline","4 g/day, n = 61",15.2%
same,"IDL particle concentration, end-of-treatment value (median)","4 g/day, n = 61, study end",185.0 nmol/L
same,"Large HDL particle concentration, end-of-treatment value (median)","4 g/day, n = 61, study end",2.3 µmol/L
same,"Large LDL particle concentration, end-of-treatment value (median)","4 g/day, n = 61, study end",64.0 nmol/L
same,"Large VLDL particle concentration, end-of-treatment value (median)","4 g/day, n = 61, study end",21.2 nmol/L
same,"Medium HDL particle concentration, end-of-treatment value (median)","4 g/day, n = 61, study end",8.4 µmol/L
same,"Medium VLDL particle concentration, end-of-treatment value (median)","4 g/day, n = 61, study end",106.8 nmol/L
same,"Small HDL particle concentration, end-of-treatment value (median)","4 g/day, n = 61, study end",21.6 µmol/L
same,"Small LDL particle concentration, end-of-treatment value (median)","4 g/day, n = 61, study end",998.0 nmol/L
